Laboratory results reported in patent US12264173B2 (GILEAD SCIENCES, INC., priority 2020, dated 2025).
Where two headings read alike, the source gives them in different places.

What was measured:
[1] = system: RSV A2; assay: RSV NHBE EC50 (RSV A2 antiviral assay in NHBE cells); type: cell-based; details: read-out: RSV NHBE EC50
Procedure: Normal human bronchial epithelial (NHBE) cells were purchased from Lonza (Walkersville, MD, Cat #CC-2540) and cultured in Bronchial Epithelial Growth Media (BEGM) (Lonza, Walkersville, MD, Cat #CC-3170). The cells were passaged 1-2 times per week to maintain <80% confluency. The NHBE cells were discarded after 6 passages in culture.
To conduct the RSV A2 antiviral assay, NHBE cells were plated in 96-well plates at a density of 7,500 cells per well in BEGM and allowed to attach overnight at 37° C. Following attachment, 100 μL of cell culture media was removed and 3-fold serially diluted compound was added using a Hewlett-Packard D300 Digital Dispenser. The final concentration of DMSO was normalized to 0.05%. Following compound addition, the NHBE cells were infected by the addition of 100 μL of RSV A2 at a titer of 1×10^4.5 tissue culture infectious doses/mL in BEGM and then incubated at 37° C. for 4 days. The NHBE cells were then allowed to equilibrate to 25° C. and cell viability was determined by removing 100 μL of culture medium and adding 100 μL of Cell-Titer Glo viability reagent. The mixtures were incubated for 10 minutes at 25° C., and the luminescence signal was quantified on an Envision luminescence plate reader.

[2] = system: RSV strain A2; assay: microbe, parasite or virus in culture; type: cell-based; details: read-out: RSV HEp-2 EC50
Procedure: Antiviral activity against RSV is determined using an infectious cytopathic cell protection assay in HEp-2 cells. In this assay, compounds inhibiting viral infection and/or replication produce a cytoprotective effect against the virus-induced cell killing that can be quantified using a cell viability reagent. The techniques used here are novel adaptations of methods described in published literature (Chapman et al., Antimicrob Agents Chemother. 2007, 51(9):3346-53.).
HEp-2 cells are obtained from ATCC (Manassas, VI) and maintained in MEM media supplemented with 10% fetal bovine serum and penicillin/streptomycin. Cells are passaged twice a week and kept at subconfluent stage. Commercial stock of RSV strain A2 (Advanced Biotechnologies, Columbia, MD) is titered before compound testing to determine the appropriate dilution of the virus stock that generates desirable cytopathic effect in HEp-2 cells.
For antiviral tests, HEp-2 cells are grown in large cell culture flasks to near confluency but not fully so. The compounds to be tested are prediluted in DMSO in 384-well compound dilution plates, either in an 8 or 40 sample per plate standardized dose response format. 3-fold serial dilution increments of each test compound are prepared in the plates and test samples are transferred via acoustic transfer apparatus (Echo, Labcyte) at 100 nL per well into cell culture assay 384-well plates. Each compound dilution is transferred in single or quadruplicate samples into dry assay plates, which are stored until assay is ready to go. The positive and negative controls are laid out in opposite on ends of the plate in vertical blocks (1 column).
Subsequently, an infectious mixture is prepared using an appropriate dilution of virus stock previously determined by titration with cells at a density of 50,000/mL and 20 µL/well is added to test plates w/compounds via automation (uFlow, Biotek). Each plate includes negative and positive controls (16 replicates each) to create 0% and 100% virus inhibition standards, respectively. Following the infection with RSV, testing plates are incubated for 4 days in a 37° C. cell culture incubator. After the incubation, a cell viability reagent, Cell TiterGlo (Promega, Madison, WI) is added to the assay plates, which are incubated briefly, and a luminescent readout is measured (Envision, Perkin Elmer) in all the assay plates. The RSV-induced cytopathic effect, percentage inhibition, is determined from the levels of remaining cell viability. […] Various potent anti-RSV tool compounds are used as positive controls for antiviral activity.

[3] = human respiratory syncytial virus, NHBE, 96 h, Table 3, NHBE cells, RSV A2, 4 days
[4] = human respiratory syncytial virus, HEp-2, 96 h, Table 3, HEp-2 cells, RSV A2, 4 days
[5] = Table 3, NHBE cells, RSV A2, 4 days
[6] = Table 3, HEp-2 cells, RSV A2, 4 days

`CCCCOC(=O)[C@H](C)NP(=O)(OC[C@@]1(C#N)O[C@@H](c2ccc3c(N)ncnn23)[C@H](OC(=O)C(C)C)[C@@H]1OC(=O)C(C)C)Oc1ccccc1` (mixture of isomers) [Example 225, (2R,3S,4S,5S)-5-(4-aminopyrrolo[2,1-f][1,2,4]triazin-7-yl)-2-((((((S)-1-butoxy-1-oxopropan-2-yl)amino)(phenoxy)phosphoryl)oxy)methyl)-2-cyanotetrahydrofuran-3,4-diyl bis(2-methylpropanoate)] was tested, and the EC50 [1, 3] was 14 nM.

For `CCOC(=O)[C@H](C)NP(=O)(OC[C@@]1(C#N)O[C@@H](c2ccc3c(N)ncnn23)[C@H](OC(=O)C(C)C)[C@@H]1OC(=O)C(C)C)Oc1ccccc1` (mixture of isomers) [Example 248, (2R,3S,4S,5S)-5-(4-aminopyrrolo[2,1-f][1,2,4]triazin-7-yl)-2-cyano-2-((((((S)-1-ethoxy-1-oxopropan-2-yl)amino)(phenoxy)phosphoryl)oxy)methyl)tetrahydrofuran-3,4-diyl bis(2-methylpropanoate)], the EC50 [2, 4] was 23 nM.

Compound `CCCCOC(=O)C(C)NP(=O)(OCC1(C#N)OC(c2ccc3c(N)ncnn23)C(OC(=O)C(C)C)C1OC(=O)C(C)C)Oc1ccccc1` (single isomer, unassigned) [Example 226] has an EC50 [1, 5] of 9 nM and an EC50 [2, 6] of 9 nM.

`CCCCOC(=O)C(C)NP(=O)(OCC1(C#N)OC(c2ccc3c(N)ncnn23)C(OC(=O)C(C)C)C1OC(=O)C(C)C)Oc1ccccc1` (single isomer, unassigned) [Example 227] showed an EC50 [1, 5] of 12 nM and an EC50 [2, 6] of 17 nM.

`CC(C)C(=O)OC1C(c2ccc3c(N)ncnn23)OC(C#N)(COP(=O)(NC(C)C(=O)OC2CCN(C)C2)Oc2ccccc2)C1OC(=O)C(C)C` (single isomer, unassigned) [Example 233] showed an EC50 [1, 5] of 29 nM and an EC50 [2, 6] of 127 nM.

`CC(C)C(=O)O[C@H]1[C@H](c2ccc3c(N)ncnn23)O[C@](C#N)(COP(=O)(N[C@@H](C)C(=O)O[C@@H]2CCOC2)Oc2ccccc2)[C@H]1OC(=O)C(C)C` (single isomer, unassigned) [Example 243] gave an EC50 [1, 3] of 11 nM and an EC50 [2, 6] of 15 nM.

`CC(C)C(=O)O[C@H]1[C@H](c2ccc3c(N)ncnn23)O[C@](C#N)(COP(=O)(N[C@@H](C)C(=O)O[C@@H]2CCOC2)Oc2ccccc2)[C@H]1OC(=O)C(C)C` (single isomer, unassigned) [Example 244] gave an EC50 [1, 5] of 21 nM and an EC50 [2, 6] of 63 nM.

For `CCOC(=O)[C@H](C)N[P@@](=O)(OC[C@@]1(C#N)O[C@@H](c2ccc3c(N)ncnn23)[C@H](OC(=O)C(C)C)[C@@H]1OC(=O)C(C)C)Oc1ccccc1` (single isomer, unassigned) [Example 249], the EC50 [1, 3] was 24 nM and the EC50 [2, 4] was 47 nM.

Compound `CCOCCOCCOC(=O)[C@H](C)NP(=O)(OC[C@@]1(C#N)O[C@@H](c2ccc3c(N)ncnn23)[C@H](OC(=O)C(C)C)[C@@H]1OC(=O)C(C)C)Oc1ccccc1` (single isomer, unassigned) [Example 263] has an EC50 [2, 4] of 23 nM.

`CCC(=O)OC1[C@H](c2ccc3c(N)ncnn23)O[C@](C#N)(COP(=O)(N[C@@H](C)C(=O)OCC2CC2)Oc2ccccc2)[C@H]1OC(=O)CC` (stereo in doubt) [Example 98, (2R,3S,4R,5S)-5-(4-aminopyrrolo[2,1-f][1,2,4]triazin-7-yl)-2-cyano-2-((((((S)-1-(cyclopropylmethoxy)-1-oxopropan-2-yl)amino)(phenoxy)phosphoryl)oxy)methyl) tetrahydrofuran-3,4-diyl dipropionate] gave an EC50 [1, 3] of 17 nM and an EC50 [2, 4] of 48 nM.

`CC(=O)O[C@H]1[C@H](c2ccc3c(N)ncnn23)O[C@](C#N)(CO[P@@](=O)(N[C@@H](C)C(=O)OC2CCCCC2)Oc2ccccc2)[C@H]1OC(C)=O` [Example 81, (2R,3S,4S,5S)-5-(4-aminopyrrolo[2,1-f][1,2,4]triazin-7-yl)-2-cyano-2-((((S)-(((S)-1-(cyclohexyloxy)-1-oxopropan-2-yl)amino)(phenoxy)phosphoryl)oxy)methyl) tetrahydrofuran-3,4-diyl diacetate] showed an EC50 [1, 3] of 22 nM and an EC50 [2, 4] of 194 nM.

Work on `CCOC(=O)[C@H](C)NP(=O)(N[C@@H](C)C(=O)OCC)OC[C@@]1(C#N)O[C@@H](c2ccc3c(NC(=O)C(C)C)ncnn23)[C@H](OC(=O)C(C)C)[C@@H]1OC(=O)C(C)C` [Example 145, ((2R,3S,4R,5S)-5-(4-isobutyramidopyrrolo[2,1-f][1,2,4]triazin-7-yl)-2-cyano-3,4-diisobutylatetetrahydrofuran-2-yl)methyl bis-ethyl L-alaninate phosphate] yielded an EC50 [1, 3] of 40 nM.

With `CC(C)C(=O)O[C@H]1[C@H](c2ccc3c(N)ncnn23)O[C@](C#N)(COP(=O)(N[C@@H](C)C(=O)OCCN2CCOCC2)Oc2ccccc2)[C@H]1OC(=O)C(C)C` (stereo partly drawn) [Example 223, (2R,3S,4S,5S)-5-(4-aminopyrrolo[2,1-f][1,2,4]triazin-7-yl)-2-cyano-2-((((((S)-1-(2-morpholinoethoxy)-1-oxopropan-2-yl)amino)(phenoxy)phosphoryl)oxy)methyl) tetrahydrofuran-3,4-diyl bis(2-methylpropanoate)] the EC50 [1, 3] was 223 nM and the EC50 [2, 4] was 1720 nM.

`COC(=O)[C@H](C)NP(=O)(O)OC[C@@]1(C#N)O[C@@H](c2ccc3c(N)ncnn23)[C@H](OC(=O)C(C)C)[C@@H]1OC(=O)C(C)C` [Example 242, ((2R,3S,4S,5S)-5-(4-aminopyrrolo[2,1-f][1,2,4]triazin-7-yl)-2-cyano-3,4-bis(isobutyryloxy)tetrahydrofuran-2-yl)methyl ((S)-1-methoxy-1-oxopropan-2-yl)phosphoramidate] was tested, and the EC50 [1, 3] was > 5000 nM and the EC50 [2, 4] was 7190 nM.

In the case of `COC(=O)[C@H](C)NP(=S)(OC[C@@]1(C#N)O[C@@H](c2ccc3c(N)ncnn23)[C@H](OC(=O)C(C)C)[C@@H]1OC(=O)C(C)C)Oc1ccccc1` (stereo partly drawn) [Example 250, (2R,3S,4S,5S)-5-(4-aminopyrrolo[2,1-f][1,2,4]triazin-7-yl)-2-cyano-2-((((((S)-1-methoxy-1-oxopropan-2-yl)amino)(phenoxy)phosphorothioyl)oxy)methyl) tetrahydrofuran-3,4-diyl bis(2-methylpropanoate)], the EC50 ([1]; human respiratory syncytial virus, NHBE, 96 h) is reported as 2420 nM and the EC50 ([2]; human respiratory syncytial virus, HEp-2, 96 h) is reported as 3930 nM.

`CC(C)C(=O)O[C@H]1[C@H](c2ccc3c(N)ncnn23)O[C@](C#N)(COP(=O)(N[C@@H](C)C(=O)OCC(C)(C)O)Oc2ccccc2)[C@H]1OC(=O)C(C)C` (stereo partly drawn) [Example 256, (2R,3S,4S,5S)-5-(4-aminopyrrolo[2,1-f][1,2,4]triazin-7-yl)-2-cyano-2-((((((S)-1-(2-hydroxy-2-methylpropoxy)-1-oxopropan-2-yl)amino)(phenoxy)phosphoryl)oxy)methyl)tetrahydrofuran-3,4-diyl bis(2-methylpropanoate)] showed an EC50 [1, 3] of 20 nM.

For `CC(C)C(=O)O[C@H]1[C@H](c2ccc3c(N)ncnn23)O[C@](C#N)(COP(=O)(N[C@@H](C)C(=O)OCC(C)(C)OP(=O)(O)O)Oc2ccccc2)[C@H]1OC(=O)C(C)C` (stereo partly drawn) [Example 262, (2R,3S,4S,5S)-5-(4-aminopyrrolo[2,1-f][1,2,4]triazin-7-yl)-2-cyano-2-((((((S)-1-(2-methyl-2-(phosphonooxy)propoxy)-1-oxopropan-2-yl)amino)(phenoxy)phosphoryl)oxy)methyl)tetrahydrofuran-3,4-diyl bis(2-methylpropanoate)], the EC50 [2, 4] was 163 nM.
